From patent publication US5182298A, “Cholesterol lowering agents” (Merck & Co., Inc., priority 1991, dated 1993)
Converted amounts (≈) assume the structure as drawn. Like-named read-outs stand apart in the source and are kept apart here.

Experiments:
[1] = test system: Saccharomyces cerevisiae; test: FISP disc diffusion assay, zone of inhibition; format: cell-based; conditions: 24 h, CH2Cl2, 250 μg/ml, agar diffusion, two lines without medium suffix, read-out: Zone: diameter of the zone of inhibition of growth
Text: (§1) The FISP assay employs disc diffusion susceptibility testing methods to generate a spectrum of activity against a panel of representative yeasts, filamentous fungi and bacteria.
(§2) The yeasts employed in the assay are Saccharomyces cerevisiae, Candida albicans, Candida tropicalis, Candida rugosa, Brettanomyces bruxellensis, Torulospora hansenii, Candida guilliermondi, Candida pseudotropicalis, Torulopsis glabrata, Cryptococcus albidus, Cryptococcus laurentii and Kluyveromyces fragilis.
(§3) For carrying out the assay, seeded assay plates are prepared in the following manner according to the type of assay strain.
(§4) Inocula for yeasts and bacterial strains are prepared from overnight broth cultures then diluted into potato dextrose agar to a final concentration of either 40 percent or 70 percent transmission at 660 nm.
(§5) For three strains of Candida albicans and one strain of Saccharomyces cerevisiae, sterile saline is employed in place of potato dextrose broth.
(§6) Assay plates for the yeasts and filamentous fungi are prepared by diluting the inoculum into appropriate molten agar medium, cooled to 45° C. to obtain a final concentration of 4 percent.
(§7) The seeded agar media thus prepared are dispensed into petri dishes for assays (11 milliliters per dish). […]
(§8) Following incubation, the inhibition zones are measured and recorded. […]

[2] = test system: Candida albicans; test: FISP disc diffusion assay, zone of inhibition; format: cell-based; conditions: 24 h, CH2Cl2, 250 μg/ml, agar diffusion, five lines without medium suffix, read-out: Zone: diameter of the zone of inhibition of growth
Text: as §1, §2, §3, §4, §5, §6, §7, §8

[3] = test system: Torulospora hansenii; test: FISP disc diffusion assay, zone of inhibition; format: cell-based; set-up: key: clear zone throughout, sharp edges; F: clear zone, fuzzy edges; S: slightly hazy zone (some growth observed throughout zone); H: hazy zone (considerable growth observed throughout zone); V: very hazy zone (zone of inhibition is barely discernable); R: zone displays a ring of resistant growth; conditions: CH2Cl2, 250 μg/ml
Text: as §1, §2, §3, §4, §6
(§9) The seeded agar media thus prepared are dispensed into petri dishes for assays (11 milliliters per dish).
(§10) The samples to be tested for production of antifungal agent are applied to 6.2 mm. filter paper discs (25 microliter/disc) and air dried at 24° C. […]
as §8

[4] = test system: Phoma sp.; test: FISP disc diffusion assay, zone of inhibition; format: cell-based; set-up: key: clear zone throughout, sharp edges; F: clear zone, fuzzy edges; S: slightly hazy zone (some growth observed throughout zone); H: hazy zone (considerable growth observed throughout zone); V: very hazy zone (zone of inhibition is barely discernable); R: zone displays a ring of resistant growth; conditions: CH2Cl2, 250 μg/ml
Text: as §1
(§11) The filamentous fungi used in the assay were Penicillium sp. Aspergillus niger, Trichoderma sp., Phoma sp., Trichoderma lignorum, Fusarium oxysporum, Ustilago maydis, Ceratocystis ulmi, Alternaria soloni, Verticillium serrae, Botrytis allii, Scopulariopsis communis, Cephalosporium sp., Cercospora beticola, Rhizomucor miehei, Aspergillus flavus and Aspergillus fumigatus.
as §3
(§12) Inocula for filamentous fungi are prepared by scraping the surface of stock plates maintained on potato dextrose agar with a moistened sterile dacron swab. The spores and mycelia are then suspended in 10 milliliters of sterile potato dextrose broth and adjusted to 65 percent transmission at 660 nm.
as §6, §9
(§13) The samples to be tested for production of antifungal agent are applied to 6.2 mm. filter paper discs (25 microliter/disc) and air dried at 24° C. When the sample to be tested is crude broth, it may be centrifuged prior to application. The discs bearing the material to be tested are then applied employing sterile conditions to the seeded assay plates. The assay plates are then incubated at either 28° C. or 37° C. for 24 hours. In one of the assays for Bacillus subtilis, the sample is applied to a disc previously impregnated with 4M potassium chloride at 25 μl/disc and then air dried.
(§14) Following incubation, the inhibition zones are measured and recorded. The measurements are made from the extreme edge where growth differs from the background zone. […]

[5] = test system: Ceratocystis ulmi; test: FISP disc diffusion assay, zone of inhibition; format: cell-based; set-up: key: clear zone throughout, sharp edges; F: clear zone, fuzzy edges; S: slightly hazy zone (some growth observed throughout zone); H: hazy zone (considerable growth observed throughout zone); V: very hazy zone (zone of inhibition is barely discernable); R: zone displays a ring of resistant growth; conditions: CH2Cl2, 250 μg/ml
Text: as §1, §11, §3, §12, §6, §9, §13, §14

[6] = test system: Cephalosporium sp.; test: FISP disc diffusion assay, zone of inhibition; format: cell-based; set-up: key: clear zone throughout, sharp edges; F: clear zone, fuzzy edges; S: slightly hazy zone (some growth observed throughout zone); H: hazy zone (considerable growth observed throughout zone); V: very hazy zone (zone of inhibition is barely discernable); R: zone displays a ring of resistant growth; conditions: CH2Cl2, 250 μg/ml
Text: as §1, §11, §3, §12, §6, §9, §13, §14

[7] = test system: Candida parapsilosis; test: Microdilution Broth Assay (MIC/MFC); format: cell-based; conditions: Lodderomyces parapsilosis; strain MY 1010; read-out: MFC (minimum fungicidal concentration)
Protocol: (§15) The broad spectrum antifungal activity of the present compounds was further determined by broth dilution methods. The compounds are particularly active towards filamentous fungi and yeasts including Candida albicans and Crypt. neoformans. The sensitivity of filamentous fungi and yeasts was determined using inhibitor dilution assays in microtiter format. A standardized spore suspension for testing the filamentous fungi was prepared by inoculating sterile distilled water with spores such that 1.5-7.5×10^3 colony forming units were added per well. The microtiter wells were filled with 75 μl of yeast nitrogen base containing 1% Dextrose medium (YNB/D) containing compound. Fifty μl of inoculated YNB/D medium was then added to the wells.
(§16) The sensitivity of yeasts was determined by inoculating sterile distilled water with aliquots of a 4-hour yeast culture grown in Yeast Morphology (YM) media at 35° C. and diluting in YNB/D to yield a final concentration of 1.5-7.5×10^3 colony forming units/well. Seventy-five μl of inoculated media was added per well. To test the sensitivity of yeast, compound was solubilized in 10 percent aqueous DMSO at 2.56 mg/ml. The compound was diluted serially in YNB/D from 128 to 0.06 μg/ml. The wells were filled with 75 μl of drug containing media. […] Representative of the antifungal activity are the minimum inhibitory concentration and minimum fungicidal concentration data shown below in Table II: […]

[8] = test system: Candida guilliermondii; test: Microdilution Broth Assay (MIC/MFC); format: cell-based; conditions: Meyerozyma guilliermondii, strain MY 1019
Protocol: as §15, §16

[9] = test system: Saccharomyces cerevisiae; test: Microdilution Broth Assay (MIC/MFC); format: cell-based
Protocol: as §15, §16

[10] = test system: Cryptococcus neoformans; test: Microdilution Broth Assay (MIC/MFC); format: cell-based; conditions: for MIC: 35° C., read-out: MIC (minimum inhibitory concentration)
Protocol: as §15, §16

[11] = test system: Candida tropicalis; test: Microdilution Broth Assay (MIC/MFC); format: cell-based
Protocol: as §15, §16

[12] = test system: Candida albicans; test: Microdilution Broth Assay (MIC/MFC); format: cell-based
Protocol: as §15, §16

[13] = test system: Candida guilliermondii; test: FISP disc diffusion assay, zone of inhibition; format: cell-based; conditions: Meyerozyma guilliermondii, 24 h; CH2Cl2, 250 μg/ml; agar diffusion; read-out: Zone: diameter of the zone of inhibition of growth
Text: as §1, §2, §3, §4, §6, §9, §10, §8

[14] = test system: Torulopsis glabrata; test: FISP disc diffusion assay, zone of inhibition; format: cell-based; conditions: Nakaseomyces glabratus, 24 h; CH2Cl2, 250 μg/ml; agar diffusion; read-out: Zone: diameter of the zone of inhibition of growth
Text: as §1, §2, §3, §4, §6, §9, §10, §8

[15] = light stability on isolation and handling; format: physicochemical
[16] = test system: Bacillus subtilis; test: FISP disc diffusion assay, zone of inhibition; format: cell-based; conditions: CH2Cl2, 250 μg/ml, agar diffusion
Protocol: as §1
The bacteria employed in the assay are Streptomyces sp., Acholeplasma laidlawii and Bacillus subtilis.
as §3
Seeded agar for Bacillus subtilis are prepared from a commercially available spore suspension which is diluted directly into molten agar (45° C.) to obtain a final concentration of 0.1 percent.
as §9, §13, §8

[17] = test system: Aspergillus niger; test: FISP disc diffusion assay, zone of inhibition; format: cell-based; conditions: 24 h, CH2Cl2, 250 μg/ml, agar diffusion, two lines for this species, read-out: Zone: diameter of the zone of inhibition of growth
Text: as §1, §11, §3, §12, §6, §7, §8

## CC(/C=C/C=C(\C)C(O)C(C)C(=O)O[C@H]1C[C@H](C)C=C2C=C[C@@]3(C)O[C@@H](O)CC(=O)[C@]3(C)[C@H]21)=C\C=C\C(=O)O (some centres unmarked) [Compound A]
[1]
  zone of inhibition at 250 µg/mL: 0 mm
[2]
  zone of inhibition at 250 µg/mL: 0 mm
[3]
  Zone quality (qualifier): H
[4]
  Zone quality (qualifier): S
[5]
  Zone quality (qualifier): V
[6]
  Zone quality (qualifier): F
[7]
  MFC: 0.25 µg/mL (≈ 0.462 µM)
[8]; 24 to 48 hours, 35° C., read-out: MIC (minimum inhibitory concentration)
  MIC: > 128 µg/mL
[8]; read-out: MFC (minimum fungicidal concentration)
  MFC: > 128 µg/mL
[9]; strain MY 1976, 24 to 48 hours, 35° C., read-out: MIC (minimum inhibitory concentration)
  MIC: > 128 µg/mL
[9]; strain MY 1976, read-out: MFC (minimum fungicidal concentration)
  MFC: > 128 µg/mL
[10]; strain MY 1051, read-out: MFC (minimum fungicidal concentration)
  MFC: 32 µg/mL (≈ 59.2 µM)
[10]; strain MY 1146, 24 to 48 hours
  MIC: 128 µg/mL (≈ 237 µM)
[10]; strain MY 1146, read-out: MFC (minimum fungicidal concentration)
  MFC: 64 µg/mL (≈ 118 µM)
[10]; strain MY 2061, 24 to 48 hours
  MIC: 128 µg/mL (≈ 237 µM)
[10]; strain MY 2061, read-out: MFC (minimum fungicidal concentration)
  MFC: 64 µg/mL (≈ 118 µM)
[11]; strain MY 1012, 24 to 48 hours, 35° C., read-out: MIC (minimum inhibitory concentration)
  MIC: ≤ 0.06 µg/mL
[11]; strain MY 1012, read-out: MFC (minimum fungicidal concentration)
  MFC: 0.5 µg/mL (≈ 0.925 µM)
[12]; Candida albicans, strain MY 1055, 24 to 48 hours, 35° C., read-out: MIC (minimum inhibitory concentration)
  MIC: ≤ 0.06 µg/mL
[12]; Candida albicans, strain MY 1055, read-out: MFC (minimum fungicidal concentration)
  MFC: ≤ 0.06 µg/mL
[12]; strain MY 1028
  MFC (minimum fungicidal concentration): ≤ 0.06 µg/mL
[12]; strain MY 1028, 24 to 48 hours, 35° C.
  MIC (minimum inhibitory concentration): ≤ 0.06 µg/mL
[13]
  zone of inhibition at 250 µg/mL: 0 mm
[14]
  zone of inhibition at 250 µg/mL: 0 mm
[15]
  light sensitivity: light sensitive
[15]; isolated and worked with in the absence of light
  stability: stable
[16]; Bacillus subtilis, 24 h, KCl (disc impregnated with 4M potassium chloride), read-out: Zone: diameter of the zone of inhibition of growth
  zone of inhibition at 250 µg/mL: 0 mm
[16]
  Zone: diameter of the zone of inhibition of growth: 0 mm
[17]
  zone of inhibition at 250 µg/mL: 0 mm
